Laboratory results reported in patent publication US20220304970A1, “LIPOSOMIAL EYE DROPS SOLUTION AND USES THEREOF FOR THE TREATMENT OF DRY EYE SYNDROME” (Dr. Rolf Lambert Pharma-Consulting GmbH, priority 2018, published 2022).

Assay: Stability to steam sterilization
Conditions: 121° C. at 1·10^5 Pa (1 atm) for 15 minutes

In the case of CCCCCCCCCCCCCCCC(=O)OC/C=C(C)/C=C/C=C(C)/C=C/C1=C(C)CCCC1(C)C [Vitamin A Palmitate, Retinyl Palmitate], the stability to sterilization is reported as “not stable”.
